Reference: PMC3914206

What was measured:
Type in all cases: binding
[1] = tested on: panel of 442 kinases; conditions: for KINOMEscan: EGFR(L747-E749del, A750P) / KINOMEscan: EGFR(L747-S752del, P753S) / KINOMEscan: EGFR(L747-T751del,Sins) / KINOMEscan: FLT3(ITD): Compound Concentration 10 µM; for Number of score not higher than 10: of 442 total assayed kinases, % Ctrl ≤ 10; for Number of score not higher than 10 / S10: compound concentration 10 µM; for S10: selectivity score = (number of kinases with %Ctrl ≤ 10)/total number of kinases tested (442)
Text: (§1) We assessed the selectivity of members of this scaffold using the KINOMEscan methodology across a near comprehensive panel of 442 kinases [[18,27]].

[2] = biological target: T1, panel of 442 kinases (Homo sapiens, UniProt O15111); conditions: Compound Concentration 10 µM
T1 construct: purchased KINOMEscan
T1 sequence (O15111 1-745): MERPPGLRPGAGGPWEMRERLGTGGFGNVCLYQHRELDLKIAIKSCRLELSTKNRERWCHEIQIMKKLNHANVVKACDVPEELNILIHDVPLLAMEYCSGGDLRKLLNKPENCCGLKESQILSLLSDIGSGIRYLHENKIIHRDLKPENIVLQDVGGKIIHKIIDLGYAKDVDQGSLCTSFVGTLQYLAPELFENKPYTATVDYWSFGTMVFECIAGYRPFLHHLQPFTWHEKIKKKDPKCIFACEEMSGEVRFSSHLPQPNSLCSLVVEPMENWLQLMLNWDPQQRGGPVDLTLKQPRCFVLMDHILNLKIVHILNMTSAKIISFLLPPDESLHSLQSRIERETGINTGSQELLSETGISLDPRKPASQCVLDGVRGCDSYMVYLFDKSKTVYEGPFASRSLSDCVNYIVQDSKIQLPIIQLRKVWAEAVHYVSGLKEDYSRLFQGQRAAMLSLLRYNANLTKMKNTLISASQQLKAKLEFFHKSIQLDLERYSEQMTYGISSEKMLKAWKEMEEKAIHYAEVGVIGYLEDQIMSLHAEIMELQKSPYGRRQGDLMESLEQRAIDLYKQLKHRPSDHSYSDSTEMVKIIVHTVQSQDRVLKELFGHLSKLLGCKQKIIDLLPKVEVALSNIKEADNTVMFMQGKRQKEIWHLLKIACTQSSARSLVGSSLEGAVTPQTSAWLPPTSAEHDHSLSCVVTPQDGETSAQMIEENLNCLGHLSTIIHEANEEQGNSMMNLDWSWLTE
Text: as §1

[3] = biological target: T2, panel of 442 kinases (Homo sapiens, UniProt Q9HCP0); conditions: Compound Concentration 10 µM
T2 construct: purchased KINOMEscan
T2 sequence (Q9HCP0 whole entry): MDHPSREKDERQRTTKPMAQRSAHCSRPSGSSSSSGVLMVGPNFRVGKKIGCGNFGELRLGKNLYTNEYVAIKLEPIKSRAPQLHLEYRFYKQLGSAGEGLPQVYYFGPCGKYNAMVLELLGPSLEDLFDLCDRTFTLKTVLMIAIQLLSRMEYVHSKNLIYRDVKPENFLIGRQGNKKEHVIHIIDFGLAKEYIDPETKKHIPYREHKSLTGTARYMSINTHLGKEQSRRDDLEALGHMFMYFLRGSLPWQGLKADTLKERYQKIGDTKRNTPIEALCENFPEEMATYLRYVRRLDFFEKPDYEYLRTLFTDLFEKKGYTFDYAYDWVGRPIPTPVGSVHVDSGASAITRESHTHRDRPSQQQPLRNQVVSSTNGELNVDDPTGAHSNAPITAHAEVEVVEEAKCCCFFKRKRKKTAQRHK
Text: as §1

SMILES | KINOMEscan: EGFR(L747-E749del, A750P) [1] | KINOMEscan: EGFR(L747-S752del, P753S) [1] | KINOMEscan: EGFR(L747-T751del,Sins) [1] | KINOMEscan: FLT3(ITD) [1] | Number of score not higher than 10 [1] | KINOMEscan selectivity score (S10) ([1]; screened at 10 μM, 442 kinases) | S10 [1] | KINOMEscan: IKK-alpha [2] | KINOMEscan: CSNK1G1 [3]
COc1cc(C(=O)N2CCC(N3CCN(C)CC3)CC2)ccc1Nc1ncc2c(n1)N(C1CCCC1)c1ccccc1C(=O)N2C [Compound 25, 11-cyclopentyl-2-((2-methoxy-4-(4-(4-methylpiperazin-1-yl)piperidine-1-carbonyl)phenyl)amino)-5-methyl-5H-benzo[e]pyrimido[5,4-b][1,4]diazepin-6(11H)-one] | 85 | 74 | 76 | 100 | 8 | 0.018 | 0.018 | 100 | 73
CCOc1cc(C(=O)N2CCC(N3CCN(C)CC3)CC2)ccc1Nc1ncc2c(n1)N(C1CCCC1)c1ccccc1C(=O)N2C [Compound 26] | 100 | 100 | 100 | 100 | 3 | – | 0.007 | 100 | 98
COc1cc(C(=O)N2CCC(N3CCN(C)CC3)CC2)ccc1Nc1ncc2c(n1)N(C)c1ccccc1C(=O)N2C [15 (LRRK2-IN-1)] | 78 | 84 | 100 | 100 | 16 | – | 0.036 | 100 | 100
